The values that follow come from PMC12812255 (ACS infectious diseases, 2025).

Data set [1] concerns M. tuberculosis H37Ra. Nature of the data set: Antibacterial susceptibility, broth dilution, AlamarBlue. The format is cell-based. Particulars: Mycobacterium tuberculosis, read-out: MIC H37Ra.
Data set [2] addresses T1, MtbADSL (Mycobacterium tuberculosis, UniProt I6XWA1). Description: Gel-based thermal shift assay. The format is binding. As to conditions: 15 or 30 μM compound, MtbADSL 5 μM.
Data set [3] is described as follows: in vitro. Particulars: human, CC50 CCF-STTG1.
Data set [4] addresses T1, MtbADSL. Nature of the data set: PPDK-luciferase coupling Mtb ADSL enzyme assay. The format is biochemical.
In data set [5] the target is T2, human ADSL (huADSL) (Homo sapiens, UniProt P30566).
T2 sequence (P30566 1-484): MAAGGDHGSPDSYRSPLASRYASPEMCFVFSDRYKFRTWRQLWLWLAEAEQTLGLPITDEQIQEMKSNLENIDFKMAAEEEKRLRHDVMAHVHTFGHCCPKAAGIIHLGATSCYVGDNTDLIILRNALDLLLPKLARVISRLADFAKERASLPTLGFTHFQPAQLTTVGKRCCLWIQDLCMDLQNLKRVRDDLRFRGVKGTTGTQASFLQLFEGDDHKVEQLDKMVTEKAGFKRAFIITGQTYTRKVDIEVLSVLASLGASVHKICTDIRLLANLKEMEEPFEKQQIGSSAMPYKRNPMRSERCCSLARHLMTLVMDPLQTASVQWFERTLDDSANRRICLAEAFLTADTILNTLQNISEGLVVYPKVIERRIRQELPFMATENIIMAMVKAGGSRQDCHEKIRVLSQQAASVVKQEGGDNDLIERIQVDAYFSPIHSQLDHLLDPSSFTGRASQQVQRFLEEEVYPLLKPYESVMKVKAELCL
Nature of the data set: Human ADSL PPDK-AMP assay. The format is biochemical. As to conditions: for SI, selectivity index, IC50-human/IC50-Mtb: PPDK-coupling assay.

For data set [6], the target named is coupling enzymes, PPDK and luciferase. Description: ADSL-free PPDK-luciferase coupling enzyme assay. As to conditions: read-out: IC50 ADSL-free; no ADSL, AMP 10 μM as substrate. Type of data set: biochemical, Clostridium symbiosum (PPDK); firefly (luciferase).
The nature of data set [7]: in vitro. As to conditions: human.
Data set [8] addresses T1, MtbADSL. Description: Fluorescence polarization. The format is biochemical. For orientation: In fluorescence polarisation assays a small probe gives low polarisation when free and higher when bound to something large.
For data set [9], the target named is T1, MtbADSL. Description: Protein thermal shift assay. The format is binding. Particulars: compound together with 4-HNE, 10 μM.
Data set [10] deals with M. tuberculosis H37Rv. Nature of the data set: Antibacterial susceptibility, OD600, MIC estimated as EC90. Type of data set: cell-based. Particulars: Mycobacterium tuberculosis, read-out: MIC H37Rv (estimated by EC90).
For data set [11], the target named is T1, MtbADSL. Description: AMP-Glo Mtb ADSL assay. Type of data set: biochemical.
Data set [12] has as its system intracellular Mtb H37Ra in RAW264.7 macrophages. Nature of the data set: Phagocytosis assay, intracellular bacterial load in RAW264.7 macrophages.
For data set [13], the system named is Mtb H37Ra. Nature of the data set: AMP rescue assay. The format is cell-based, Mycobacterium tuberculosis. As to conditions: compound at MIC, AMP 0-5 mM, 7 days.
The nature of data set [14]: Cytotoxicity CCK-8. Particulars: human, CCF-STTG1 cells, CC50 CCF-STTG1, 48 h.
A short description of data set [15]: Cytotoxicity CCK-8. Particulars: human, HEK293 cells.
Data set [16] has as its system A549 cells. Description: Cytotoxicity CCK-8. Particulars: at the MIC determined for H37Rv.
The nature of data set [17]: Cytotoxicity CCK-8. As to conditions: human.
In data set [18] the test system is Mycobacterium abscessus. As to conditions: cited from earlier work.

Converted amounts (≈) assume the structure as drawn. Where two headings read alike, the source gives them in different places.

As for `O=C(O)Cc1cc(I)c(Oc2cc(I)c(O)c(I)c2)c(I)c1` [Tetrac, tetraiodothyroacetic acid], the MIC – broadly, the lowest concentration found to suppress growth – in data set [1] (168 h) is 6.2 µg/mL; in data set [1], 8.3 µM; in data set [10] it was 30 µM (≈ 22.4 µg/mL). Moreover, in [2], the “Protection of MtbADSL from heat-induced denaturation and aggregation” value is reported as “dose-dependent protection”. In addition, the CC50 at 48 h in [3] was > 200 µM. Besides, the 50% inhibitory concentration (IC50) (in general, the midpoint of a concentration-inhibition curve) in [4] was determined as 4.8 µM; in [5], 22.4 µM; in data set [6] it was 24.5 µM; in data set [8], 13 µM; in data set [11] it was 1.6 µM. Moreover, the “SI, selectivity index, IC50-human/IC50-Mtb” value in data set [5] (listed as TT) is 4.7. Moreover, in data set [7], the viability (commonly a read-out of living cells in per cent, often relative to untreated cells) at 48 h was ~71%. In addition, the “Reduction of Tm on co-incubation with 4-HNE” value in data set [9] was ~ 0.6 °C. Besides, the “Reduction of intracellular Mtb growth” value was ~ 1 log in data set [12] (5 μM) and ~ 2.5 log in data set [12] (15 μM).
In the case of `Oc1c(Cl)cc(Cl)cc1Sc1cc(Cl)cc(Cl)c1O` [bithionol], the minimum inhibitory concentration (MIC) in data set [1] (168 h) was 3.1 µg/mL; in data set [1], 8.7 µM; in data set [10], 28 µM (≈ 9.97 µg/mL). The “AMP concentration at which growth is rescued” value in data set [13] came out at 5.0 mM. The values for the CC50 at 48 h in [14], in data set [15] and in data set [17] were ~139 µM, 19.3 µM and 32.4 µM, respectively. For the same molecule, the “Protection of MtbADSL from heat-induced denaturation and aggregation” value in data set [2] is on record as “dose-dependent protection”. Moreover, the half-inhibitory concentration (IC50) turned out to be 1.6 µM in data set [4]; 14.7 µM in [5]; 21.6 µM in data set [6]; 6.2 µM in [8]; 1.2 µM in data set [11]. The “SI, selectivity index, IC50-human/IC50-Mtb” value in data set [5] is listed as 9.2. The “Reduction of A549 cell viability” value in data set [16] was ~ 45%. For the same molecule, the “MIC against Mycobacterium abscessus” value in data set [18] was 0.625 to 2.5 µM. Further, the “Reduction of intracellular Mtb growth” value in [12] (5 μM) is ~ 2.3 log; in data set [12] (15 μM) it was 4.6 log.
With `CCCCCC(O)/C=C/C=O` (stereo not shown) [4-HNE, 4-hydroxynonenal], in data set [4] (read-out: IC50-Mtb PPDK, PPDK-luciferase coupling assay, SAMP 20 μM), the half-maximal inhibitory concentration (IC50) was determined as 2.6 µM.
